The source of these data is patent publication US6559173B1, “3-(heteroarylamino)methylene-1,3-dihydro-2H-indol-2-ones as kinase inhibitors” (Allergan, Inc., priority 2001, dated 2003).

The test system of assay [1] is VEGF induced increases in intracellular calcium levels in HUVEC (human umbilical vein endothelial cells). In words: VEGF Stimulated Ca++ signal assay (FLIPR). The following applies: VEGF 5 ng/mL; for pIC50: 0.01 to 10.0 μM; for inhibition at 10 µM: 30 min pre-incubation. Type of assay: cell-based. The method, then: VEGF Stimulated Ca^++ Signal in vitro
Automated FLIPR (Fluorometric Imaging Plate Reader) technology was used to screen for inhibitors of VEGF induced increases in intracellular calcium levels in fluorescent dye loaded endothelial cells. HUVEC (human umbilical vein endothelial cells) (Clonetics) were seeded in 96-well fibronectin coated black-walled plates overnight @ 37° C./5%CO2. Cells were loaded with calcium indicator Fluo-4 for 45 minutes at 37° C. Cells were washed 4 times (Original Cell Wash, Labsystems) to remove extracellular dye. Test compounds were reconstituted in 100% DMSO and added to the cells to give a final DMSO concentration of 0.1%. For screening, cells were pre-incubated with test agents for 30 minutes, at a single concentration (10 μM) or at concentrations ranging from 0.01 to 10.0 μM followed by VEGF stimulation (5 ng/mL). Changes in fluorescence at 516 nm were measured simultaneously in all 96 wells using a cooled CCD camera. Data were generated by determining max-min fluorescence levels for unstimulated, stimulated, and drug treated samples. IC50 values for test compounds were calculated from % inhibition of VEGF stimulated responses in the absence of inhibitor.

Assay [2] has as its target T1, cytoplasmic domain of the human VEGF receptor (VEGFR-2) (Homo sapiens, UniProt P35968).
T1 construct: The cytoplasmic domain of the human VEGF receptor (VEGFR-2) was expressed as a Histidine-tagged fusion protein; His tag (Histidine-tagged fusion); made in house; host or cells: insect cells (engineered baculovirus)
The experiment in a line: KDR Assay. Type of assay: biochemical. As to conditions: His-VEGFR-2, 3.6 μM ATP, poly-Glu-Tyr (4:1). The method, then: The cytoplasmic domain of the human VEGF receptor (VEGFR-2) was expressed as a Histidine-tagged fusion protein following infection of insect cells using an engineered baculovirus. His-VEGFR-2 was purified to homogeneity, as determined by SDS-PAGE, using nickel resin chromatography. Kinase assays were performed in 96 well microtiter plates that were coated overnight with 30 μg of poly-Glu-Tyr (4:1) in 10 mM Phosphate Buffered Saline (PBS), pH 7.2-7.4. The plates were incubated with 1% BSA and then washed four times with PBS prior to starting the reaction. Reactions were carried out in 120 μL reaction volumes containing 3.6 μM ATP in kinase buffer (50 mM Hepes buffer pH 7.4, 20 mM MgCl2, 0.1 mM MnCl2 and 0.2 mM Na3VO4). Test compounds were reconstituted in 100% DMSO and added to the reaction to give a final DMSO concentration of 5%. Reactions were initiated by the addition 0.5 ng of purified protein. Following a ten minute incubation at 25° C., the reactions were washed four times with PBS containing 0.05% Tween-20. 100 μl of a monoclonal anti-phosphotyrosine antibody-peroxidase conjugate was diluted 1:10000 in PBS-Tween-20 and added to the wells for 30 minutes. Following four washes with PBS-Tween-20, 100 μl of 0-Phenylenediamine Dihydrochloride in Phosphate-citrate buffer, containing urea hydrogen peroxide, was added to the wells for 7 minutes as a colorimetric substrate for the peroxidase. The reaction was terminated by the addition of 100 μl of 2.5N H2SO4 to each well and read using a microplate ELISA reader set at 492 nm. IC50 values for compound inhibition were calculated directly from graphs of optical density (arbitrary units) versus compound concentration following subtraction of blank values.

Assay [3] has as its system VEGF-induced EBD extravasation. In words: VEGF-induced Dermal Extravasation in Guinea Pig (Miles Assay). Type of assay: in vivo. As to conditions: for in-vivo activity (Miles Assay, Table 3): oral administration; for Miles Assay % inhibition: single oral dose 75 mg/kg, vehicle PEG400. The method, then: VEGF-induced Dermal Extravasation in Guinea Pig (Miles Assay). Male Hartley guinea pigs (300-600 g) were anesthetized with isofluorane, sheared, and given a single oral dose of drug or the respective vehicle. Ten minutes prior to the end of drug treatment, guinea pigs were anesthetized with isofluorane, and 0.5% Evans blue dye (EBD) in PBS (13-15 mg/kg dose of EBD) was injected intravenously. After 5 minutes, triplicate intradermal injections of 100 ng rhVEGF165 in 100 μl PBS and of 100 μl PBS alone were administered on the flank. After 20 minutes, each animal was euthanized with Pentosol, and the skin containing the intradermal injection sites was removed for image analysis.
Using an analog video camera coupled to a PC, an image of each trans-illuminated skin sample was captured, and the integrated optical density of each injection site was measured using ImagePro 4. For each skin sample, the difference between the mean optical density of the VEGF sites and mean optical density of the PBS sites is the measure of VEGF-induced EBD extravasation in that animal. These measured values were averaged per study group to determine the mean VEGF-induced EBD extravasation for each experimental condition, and the group means were then compared to assess inhibition of VEGF-induced EBD extravasation in the drug-treated groups relative to the vehicle-treated controls.

Each structure is given as a SMILES string. pIC50: −log10 of the molar value. A value given as a limit tells only on which side of the number the result lay.

T1 sequence (P35968 786-1356 limits assumed): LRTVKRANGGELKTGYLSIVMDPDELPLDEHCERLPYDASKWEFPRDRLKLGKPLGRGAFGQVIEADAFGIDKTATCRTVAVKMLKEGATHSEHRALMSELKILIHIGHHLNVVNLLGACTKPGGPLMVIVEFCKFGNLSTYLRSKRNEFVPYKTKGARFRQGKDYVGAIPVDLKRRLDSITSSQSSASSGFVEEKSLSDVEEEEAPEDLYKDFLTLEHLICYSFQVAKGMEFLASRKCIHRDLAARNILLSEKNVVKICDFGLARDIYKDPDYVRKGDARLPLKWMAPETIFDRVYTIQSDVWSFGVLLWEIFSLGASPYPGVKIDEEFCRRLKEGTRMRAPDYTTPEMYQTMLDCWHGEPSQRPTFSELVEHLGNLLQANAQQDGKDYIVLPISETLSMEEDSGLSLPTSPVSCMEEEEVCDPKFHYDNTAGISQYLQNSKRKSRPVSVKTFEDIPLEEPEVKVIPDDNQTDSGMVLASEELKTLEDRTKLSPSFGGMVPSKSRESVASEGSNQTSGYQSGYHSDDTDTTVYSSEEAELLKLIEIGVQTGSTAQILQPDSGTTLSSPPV

As to `Cc1cc(NC=C2C(=O)Nc3ccc(F)cc32)n[nH]1` [Example 26, 5-Fluoro-3-[(5-methyl-1H-pyrazol-3-ylamino)-methylene]-1,3-dihydro-indol-2-one], the pIC50 (in general, the IC50 on a negative log10 scale, so that one unit is a factor of ten) in assay [1] is 6.28. In assay [1] (Homo sapiens), the inhibition (usually the share of the control response that was lost under treatment) at 10 µM was 97.1% and the negative-log IC50 (pIC50) is ≥ 6.00. For the same compound, in assay [2], the negative logarithm of the IC50 (pIC50) was 6.48. Further, in assay [3], the “in-vivo activity (Miles Assay, Table 3)” value is “significant in-vivo activity” and the “Miles Assay % inhibition” value worked out at 100%.
With `Cc1cccc2c1C(=CNc1cc[nH]n1)C(=O)N2` [Example 6, 4-Methyl-3-[(1H-pyrazol-3-ylamino)-methylene]-1,3-dihydro-indol-2-one], the pIC50 is 5.97 in assay [1], ≥ 6.00 in assay [1] (Homo sapiens) and 6.30 in assay [2]. Besides, the inhibition at 10 µM in assay [1] (Homo sapiens) worked out at 97.6%. Moreover, the “in-vivo activity (Miles Assay, Table 3)” value in assay [3] is given as “significant in-vivo activity”. Further, the “Miles Assay % inhibition” value in assay [3] turned out to be 83%.
